Results from patent US20220323406A1, “METHODS AND COMPOSITIONS FOR DIFFERENTIATING STEM CELLS” (Massachusetts Institute of Technology, priority 2019, published 2022).

Experiments:
[1] = system: ENR+CD organoids (ISC to Paneth cell differentiation); assay: Primary screen: CCh-stimulated lysozyme secretion LYZ.S, 2.5-D 384-well ENR+CD organoid differentiation; type: cell-based, mouse; details: primary screen
Excerpt: (§1) High-throughput screening.

ENR+CD organoids = assay: Primary screen: ATP (CellTiter-Glo 3D, CTG) cell number/viability, 2.5-D 384-well ENR+CD organoids; details: primary screen; for Z.CTG: standard z score;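 as to all read-outs here: compounds given at plating and again on day 3 over a 6-day differentiation from ENR+CV stem-cell-enriched precursors, ATP measured on day 6, plate median as control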
[2] = system: ENR+CD organoids (ISC to Paneth cell differentiation); assay: Primary screen: basal (non-stimulated) lysozyme secretion LYZ.NS, 2.5-D 384-well ENR+CD organoid differentiation; type: cell-based, mouse; details: primary screen; for Z.LYZ.NS: standard z score
Excerpt: as §1

[3] = 1st dose row of the treatment (0.08 uM by row order; dose not reprinted)
[4] = 2nd dose row of the treatment (0.40 uM by row order; dose not reprinted)
[5] = 3rd dose row of the treatment (2.00 uM by row order; dose not reprinted)
[6] = 4th dose row of the treatment (10.00 uM by row order; dose not reprinted)
[7] = dose 0.08 uM, FC vs plate median
[8] = dose 0.40 uM, FC vs plate median
[9] = dose 2.00 uM, FC vs plate median
[10] = dose 10.00 uM, FC vs plate median

Compound	Dose.FC.LYZ.S ([1]; dose 0.08 uM)	Dose.FC.LYZ.S ([1]; dose 0.40 uM)	Dose.FC.LYZ.S ([1]; dose 2.00 uM)	Dose.FC.LYZ.S ([1]; dose 10.00 uM)	Dose.FC.CTG (ENR+CD organoids; dose 0.08 uM)	Z.CTG (standard z score) (ENR+CD organoids; dose 0.08 uM)	Dose.FC.CTG (ENR+CD organoids; dose 0.40 uM)	Z.CTG (standard z score) (ENR+CD organoids; dose 0.40 uM)	Dose.FC.CTG (ENR+CD organoids; dose 2.00 uM)	Z.CTG (standard z score) (ENR+CD organoids; dose 2.00 uM)	Dose.FC.CTG (ENR+CD organoids; dose 10.00 uM)	Z.CTG (standard z score) (ENR+CD organoids; dose 10.00 uM)	Dose.FC.LYZ.NS ([2]; dose 0.08 uM)	Z.LYZ.NS (standard z score) ([2]; dose 0.08 uM)	Dose.FC.LYZ.NS ([2]; dose 0.40 uM)	Z.LYZ.NS (standard z score) ([2]; dose 0.40 uM)	Dose.FC.LYZ.NS ([2]; dose 2.00 uM)	Z.LYZ.NS (standard z score) ([2]; dose 2.00 uM)	Dose.FC.LYZ.NS ([2]; dose 10.00 uM)	Z.LYZ.NS (standard z score) ([2]; dose 10.00 uM)	also measured
C[C@H](Oc1cc(-c2cnn(C3CCNCC3)c2)cnc1N)c1c(Cl)ccc(F)c1Cl [(S)-crizotinib]	0.125 log2 fold change	0.016 log2 fold change	−0.059 log2 fold change	−0.111 log2 fold change	0.241 log2 fold change	0.575	0.054 log2 fold change	0.130	0.111 log2 fold change	0.266	0.019 log2 fold change	0.046	0.193 log2 fold change	1.679	0.009 log2 fold change	0.081	−0.034 log2 fold change	−0.294	−0.068 log2 fold change	−0.588	SSMD.LYZ.S_Rep (strictly standardized mean difference) [1, 3]: 0.881; Z.LYZ.S (standard z score) [1, 3]: 0.808; SSMD.LYZ.S_Rep (strictly standardized mean difference) [1, 4]: 0.084; Z.LYZ.S (standard z score) [1, 4]: 0.103; SSMD.LYZ.S_Rep (strictly standardized mean difference) [1, 5]: −0.343; Z.LYZ.S (standard z score) [1, 5]: −0.383; SSMD.LYZ.S_Rep (strictly standardized mean difference) [1, 6]: −0.491; Z.LYZ.S (standard z score) [1, 6]: −0.720; SSMD.CTG.Rep (strictly standardized mean difference) (ENR+CD organoids; [3]): 0.742; SSMD.CTG.Rep (strictly standardized mean difference) (ENR+CD organoids; [4]): 0.190; SSMD.CTG.Rep (strictly standardized mean difference) (ENR+CD organoids; [5]): 0.285; SSMD.CTG.Rep (strictly standardized mean difference) (ENR+CD organoids; [6]): 0.034; SSMD.LYZ.NS_Rep (strictly standardized mean difference) [2, 3]: 0.838; SSMD.LYZ.NS_Rep (strictly standardized mean difference) [2, 4]: 0.094; SSMD.LYZ.NS_Rep (strictly standardized mean difference) [2, 5]: −0.229; SSMD.LYZ.NS_Rep (strictly standardized mean difference) [2, 6]: −0.438
OG-L002	–	–	–	–	–	–	–	–	–	–	–	–	–	–	–	–	–	–	–	–	Dose.FC.LYZ.S [1, 7]: 0.023 log2 fold change; Dose.FC.LYZ.S [1, 8]: 0.026 log2 fold change; Dose.FC.LYZ.S [1, 9]: −0.001 log2 fold change; Dose.FC.LYZ.S [1, 10]: −0.084 log2 fold change; Z.CTG (ENR+CD organoids; dose 0.08 uM): 0.225; Z.CTG (ENR+CD organoids; dose 0.40 uM): 0.329; Z.CTG (ENR+CD organoids; dose 2.00 uM): 0.306; Z.CTG (ENR+CD organoids; dose 10.00 uM): 0.225; Dose.FC.CTG (ENR+CD organoids; [7]): 0.094 log2 fold change; Dose.FC.CTG (ENR+CD organoids; [8]): 0.138 log2 fold change; Dose.FC.CTG (ENR+CD organoids; [9]): 0.128 log2 fold change; Dose.FC.CTG (ENR+CD organoids; [10]): 0.094 log2 fold change; Z.LYZ.NS ([2]; dose 0.08 uM): −0.001; Z.LYZ.NS ([2]; dose 0.40 uM): −0.097; Z.LYZ.NS ([2]; dose 2.00 uM): 0.182; Z.LYZ.NS ([2]; dose 10.00 uM): −0.790; Dose.FC.LYZ.NS [2, 7]: 0.000 log2 fold change; Dose.FC.LYZ.NS [2, 8]: −0.011 log2 fold change; Dose.FC.LYZ.NS [2, 9]: 0.021 log2 fold change; Dose.FC.LYZ.NS [2, 10]: −0.091 log2 fold change
Cc1cc(-c2ccc(CC(=O)Nc3ccc(-c4cccnc4)cc3)cc2)ccn1 [Wnt-C59 (C59)]	−0.242 log2 fold change	−0.281 log2 fold change	−0.313 log2 fold change	−0.301 log2 fold change	−0.572 log2 fold change	−1.366	−0.611 log2 fold change	−1.461	−0.627 log2 fold change	−1.498	−0.613 log2 fold change	−1.465	−0.163 log2 fold change	−1.424	−0.182 log2 fold change	−1.588	−0.198 log2 fold change	−1.724	−0.191 log2 fold change	−1.666	–
